These are literature values, as cited in patent US11123091B2, “Device and methods for treating paranasal sinus conditions” (Intersect ENT, Inc., priority 2005, dated 2021).

What is called EC50 is the midpoint of the concentration-response curve.

This data set deals with cultured human airway epithelial cells. Particulars: for drug concentration at which dose response curves begin: beginning as low as; for EC50: read-out: EC50 levels of transcriptional response.

As for `CCC(=O)O[C@]1(C(=O)SCF)[C@H](C)C[C@H]2[C@@H]3C[C@H](F)C4=CC(=O)C=C[C@]4(C)[C@@]3(F)[C@@H](O)C[C@@]21C` [fluticasone propionate], the “drug concentration at which dose response curves begin” value is on record as 10^−12 M and the EC50 is 0.1 nM.

As for `C[C@@H]1C[C@H]2[C@@H]3CCC4=CC(=O)C=C[C@]4(C)[C@@]3(Cl)[C@@H](O)C[C@]2(C)[C@@]1(OC(=O)c1ccco1)C(=O)CCl` [mometasone furoate], the “drug concentration at which dose response curves begin” value is 10^−12 M and the EC50 was 0.1 nM.
